Each structure is given as a SMILES string. Calls of active or inactive are those of the source. The calls are words filed in the database; no cut-off is given here.

Data set [1] concerns Rattus norvegicus. Nature of the data set: Toxicity in Sprague-Dawley rat assessed as hyperexcitability at 240 mg/kg, po. The conditions noted are these: in vivo. More on the design: dose 240 mg/kg, route oral. It is filed as organism-based.
For data set [2], the system named is Rattus norvegicus. Nature of the data set: Toxicity in Sprague-Dawley rat assessed as rigidity at 240 mg/kg, po. More on the design: dose 240 mg/kg, route oral. To be noted: in vivo. The data set is classed as organism-based.
For data set [3], the system named is Rattus norvegicus. Nature of the data set: Toxicity in Sprague-Dawley rat assessed as convulsion at 240 mg/kg, po. The conditions noted are these: in vivo. It is filed as organism-based. More on the design: dose 240 mg/kg, route oral.
Data set [4] relates to Rattus norvegicus. Nature of the data set: Hypoglycemic activity in glucose loaded Sprague-Dawley rat assessed as reduction of blood glucose level at 89 mg/kg, po in presence of microsomal enzyme inhibitor SKF 525-A. The data set is classed as functional, organism-based. More on the design: dose 89 mg/kg.
The test system of data set [5] is Rattus norvegicus. Nature of the data set: Hypoglycemic activity in glucose loaded Sprague-Dawley rat assessed as reduction of blood glucose level at 89 mg/kg, po relative to control. More on the design: scale not given: the % may be the effect or the level left. The data set is classed as functional.
The test system of data set [6] is Mus musculus. Nature of the data set: Analgesic activity in Swiss-Webster mouse assessed as reduction of acetylcholine-induced writhing at 75 mg/kg, sc relative to control. It is filed as functional. More on the design: scale not given: the % may be the effect or the level left. The conditions noted are these: route subcutaneous.
For data set [7], the system named is Rattus norvegicus. Put plainly: Narcotic analgesic activity in fasted Sprague-Dawley rat at 240 mg/kg, po measured at 15 mins by D'Amour-Smith tail-flick test relative to control. The data set is classed as functional. A general note: In hot-plate and tail-flick tests a longer latency is read as antinociception.
Data set [8] deals with Rattus norvegicus. Nature of the data set: Toxicity in Sprague-Dawley rat assessed as tremor at 240 mg/kg, po. It is filed as organism-based. More on the design: dose 240 mg/kg, route oral. To be noted: in vivo.
Data set [9] deals with Mus musculus. Put plainly: Analgesic activity in sc dosed Swiss-Webster mouse assessed as reduction of acetylcholine-induced writhing. It is filed as functional. On the technique in general: In writhing tests, fewer writhes than in controls are read as antinociception.
For data set [10], the system named is Rattus norvegicus. Put plainly: Narcotic analgesic activity in fasted Sprague-Dawley rat at 240 mg/kg, po measured at 60 mins by D'Amour-Smith tail-flick test relative to control. It is filed as functional.
In data set [11] the test system is Rattus norvegicus. Put plainly: Hypoglycemic activity in glucose loaded Sprague-Dawley rat assessed as reduction of blood glucose level at 100 mg/kg, po relative to control. It is filed as functional. More on the design: scale not given: the % may be the effect or the level left.
Data set [12] deals with Rattus norvegicus. Nature of the data set: Hypoglycemic activity in Sprague-Dawley rat assessed as reduction of blood glucose level at 100 mg/kg, po by glucagon-impaired glucose disposal test relative to control. It is filed as functional. More on the design: scale not given: the % may be the effect or the level left.
For data set [13], the system named is Mus musculus. Put plainly: Analgesic activity in po dosed Swiss-Webster mouse assessed as reduction of acetylcholine-induced writhing. The data set is classed as functional.
The test system of data set [14] is Rattus norvegicus. Put plainly: Narcotic analgesic activity in po dosed fasted Sprague-Dawley rat measured at 15 mins by D'Amour-Smith tail-flick test. To be noted: 0.25 h. The data set is classed as functional.
Data set [15] concerns Mus musculus. Nature of the data set: Toxicity in Swiss-Webster mouse assessed as stimulation of straub tail at 150 mg/kg, po after 15 to 25 mins. The data set is classed as organism-based. More on the design: dose 150 mg/kg, route oral. The conditions noted are these: in vivo.
The test system of data set [16] is Rattus norvegicus. Put plainly: Hypoglycemic activity in Sprague-Dawley rat assessed as reduction of blood glucose level at 88 mg/kg, po by glucagon-impaired glucose disposal test relative to control. It is filed as functional.
Data set [17] deals with Rattus norvegicus. Nature of the data set: Hypoglycemic activity in fasted Sprague-Dawley rat assessed as reduction of blood glucose level at 100 mg/kg, po relative to control. It is filed as functional. More on the design: scale not given: the % may be the effect or the level left.
For data set [18], the system named is Rattus norvegicus. Put plainly: Hypoglycemic activity in Sprague-Dawley rat assessed as reduction of blood glucose level at 87 mg/kg, po by glucagon-impaired glucose disposal test in presence of microsomal enzyme inhibitor SKF 525-A. The data set is classed as functional, organism-based. More on the design: dose 87 mg/kg.
For data set [19], the system named is Rattus norvegicus. Nature of the data set: Hypoglycemic activity in Sprague-Dawley rat assessed as reduction of blood glucose level at 87 mg/kg, po by glucagon-impaired glucose disposal test relative to control. It is filed as functional. More on the design: scale not given: the % may be the effect or the level left.
Data set [20] can be described thus: Drug level in glucose loaded Sprague-Dawley rat urine treated with methyl (exo,exo)-8-(l-pentyl)-2-(2-thienyl)-8-azabicyclo[3.2.1]octane-3-carboxylate at 20 mg, po administered 3 to 6 hrs measured for 24 hrs by TLC/mass spectrographic analysis. It is filed as ADME, organism-based. The conditions noted are these: in vivo.
Data set [21] concerns Rattus norvegicus. Put plainly: Narcotic analgesic activity in po dosed fasted Sprague-Dawley rat measured at 60 mins by D'Amour-Smith tail-flick test. The data set is classed as functional. The conditions noted are these: Rattus norvegicus, Sprague-Dawley, Tail, po, 1 h; read-out: ED50.
The nature of data set [22]: Drug level in glucose loaded Sprague-Dawley rat urine treated with (RS-exo,exo)-8-methyl-2-(2-thienyl)-8-azabicyclo[3.2.1]octane-3-carboxylate at 20 mg, po administered 3 to 6 hrs measured for 24 hrs by TLC/mass spectrographic analysis. It is filed as ADME, organism-based. To be noted: in vivo.
For data set [23], the system named is Rattus norvegicus. Nature of the data set: Hypoglycemic activity in glucose/glycogen loaded Sprague-Dawley rat assessed as reduction of blood glucose level at 87 mg/kg, po. More on the design: dose 87 mg/kg. The data set is classed as functional, organism-based.
Data set [24] has as its system Mus musculus. Put plainly: Analgesic activity in Swiss-Webster mouse assessed as reduction of acetylcholine-induced writhing at 25 mg/kg, sc relative to control. It is filed as functional. To be noted: route subcutaneous. More on the design: scale not given: the % may be the effect or the level left.
The test system of data set [25] is Rattus norvegicus. Put plainly: Hypoglycemic activity in Sprague-Dawley rat assessed as reduction of blood glucose level at 89 mg/kg, po by glucagon-impaired glucose disposal test relative to control. More on the design: scale not given: the % may be the effect or the level left. The data set is classed as functional.
Data set [26] has as its system Rattus norvegicus. Nature of the data set: Hypoglycemic activity in Sprague-Dawley rat assessed as reduction of blood glucose level at 88 mg/kg, po by glucagon-impaired glucose disposal test in presence of opioid antagonist nalorphine. More on the design: dose 88 mg/kg. It is filed as functional, organism-based.
Data set [27] is filed under the species Rattus norvegicus. Nature of the data set: Narcotic analgesic activity in Sprague-Dawley rat at 15 mins by D'Amour-Smith tail-flick test in presence of microsomal enzyme inhibitor SKF 525-A. The data set is classed as functional, organism-based.
The subject of data set [28] is Rattus norvegicus. Put plainly: Narcotic analgesic activity in fasted Sprague-Dawley rat at 120 mg/kg,sc measured at 30 mins by D'Amour-Smith tail-flick test in presence of opioid antagonist nalorphine. More on the design: dose 120 mg/kg. It is filed as functional, organism-based.
Data set [29] has as its system Rattus norvegicus. Put plainly: Hypoglycemic activity in Sprague-Dawley rat assessed as reduction of blood glucose level at 88 mg/kg, po by glucagon-impaired glucose disposal test in presence of microsomal enzyme inhibitor SKF 525-A. It is filed as functional, organism-based. More on the design: dose 88 mg/kg.
For data set [30], the system named is Rattus norvegicus. Put plainly: Hypoglycemic activity in sc dosed fasted Sprague-Dawley rat assessed as reduction of blood glucose level measured for 0.5 to 2 hrs. It is filed as functional, organism-based.

As for `COC(=O)[C@H]1C[C@H]2CC[C@H]([C@H]1c1cccs1)N2CCO.Cl`, the Activity result is “Toxic” with Rattus norvegicus [1]; “Toxic” in the data set on Rattus norvegicus [2]; “Toxic” with Rattus norvegicus [3]; 72% in the data set with Rattus norvegicus [5]; 73% with Mus musculus [6]; 100% in the data set with Rattus norvegicus [7]. Besides, the outcome in the data set with Rattus norvegicus [4] was Active.

Broadly, the ED50 is the dose at which the effect has come halfway, by size or by number of responders. With `COC(=O)[C@H]1C[C@H]2CC[C@H]([C@H]1c1ccccc1)N2C` (stereo in doubt; (+)-5), the Activity result in the data set on Rattus norvegicus [8] is “Toxic”; with Rattus norvegicus [10], 59%. The ED50 in the data set with Mus musculus [9] came out at 11 mg/kg.

In the case of `CCCCCN1[C@@H]2CC[C@@H]1[C@@H](c1cccs1)[C@@H](C(=O)OCC)C2`, the Activity was 61% in the data set with Rattus norvegicus [11], 65% in the data set on Rattus norvegicus [10] and 13% in the data set on Mus musculus [6].

As to `CCOC(=O)[C@H]1C[C@H]2CC[C@H]([C@H]1c1cccs1)N2C`, the figures for the Activity in the data set with Rattus norvegicus [12] and in the data set on Mus musculus [15] were less than 20% and “Toxic”, respectively. Moreover, the ED50 with Mus musculus [13] is 21 mg/kg; with Rattus norvegicus [14], 95 mg/kg.

As for `COC(=O)[C@H]1[C@@H](OC(=O)c2ccccc2)C[C@@H]2CC[C@H]1N2C`, the result with Rattus norvegicus [16] was Active.

On to `CCOC(CN1[C@@H]2CC[C@@H]1[C@@H](c1cccs1)[C@@H](C(=O)OC)C2)OCC`, for which the Activity with Mus musculus [6] is on record as 27%; in the data set on Rattus norvegicus [7] it was 87%; with Rattus norvegicus [17] it was 47%.

Take `COC(=O)[C@H]1C[C@H]2CC[C@@H](N2)[C@H]1c1cccs1.Cl`: the result in the data set on Rattus norvegicus [18] was Active. For the same molecule, the Activity is recorded as 43% with Rattus norvegicus [19] and “Toxic” in the data set with Mus musculus [15]. Further, the ED50 with Mus musculus [9] (Mus musculus, Swiss-Webster, sc, read-out: ED50) is 3.3 mg/kg; with Rattus norvegicus [21], 43 mg/kg. The Drug metabolism entry in data set [20] and in data set [22] was “metabolite_detected” each time.

With `COC(=O)[C@H]1CCCN(C)[C@@H]1c1cccs1` (relative stereo), the result in the data set on Rattus norvegicus [23] was inactive.

With `CCCCCOC(=O)[C@H]1C[C@H]2CC[C@H]([C@H]1c1cccs1)N2C`, the Activity is on record as 27% in the data set on Mus musculus [24], less than 20% in the data set on Rattus norvegicus [12], less than 20% in the data set with Rattus norvegicus [10] and less than 20% in the data set on Rattus norvegicus [7].

On to `COC(=O)[C@H]1C[C@H]2CC[C@H]([C@H]1c1cccc(OC)c1)N2C.Cl`, for which the Activity in the data set with Rattus norvegicus [25] stood at 24%.

As to `COC(=O)[C@H]1C[C@H]2CC[C@H]([C@H]1c1ccc(O)cc1)N2C`, the Activity in the data set with Rattus norvegicus [12] is given as less than 20%.

With `COC(=O)[C@H]1C[C@H]2CC[C@H]([C@H]1c1cccs1)N2C` (racemic), the outcome in the data set with Rattus norvegicus [26] was Active. The result in the data set filed under Rattus norvegicus [27], with Rattus norvegicus [28], in the data set on Rattus norvegicus [29] and in the data set with Rattus norvegicus [30] was inactive.

As for `CCOC(=O)N(CN1[C@@H]2CC[C@@H]1[C@@H](c1cccs1)[C@@H](C(=O)OC)C2)NC(=O)OC`, the Activity with Rattus norvegicus [11] is 80%.

`COC(=O)[C@H]1C[C@H]2CC[C@H]([C@H]1c1cccs1)N2C`: the result in the data set on Rattus norvegicus [26] was Active. Moreover, the outcome in the data set filed under Rattus norvegicus [27], with Rattus norvegicus [28] and in the data set on Rattus norvegicus [29] was inactive.
